What is called melting point is the temperature, or range, at which the solid turns liquid.

The values below come from patent US7214673B2, “Piperazine substituted aryl benzodiazepines and their use as dopamine receptor antagonists for the treatment of psychotic disorders” (Eli Lilly and Company, priority 2002, dated 2007).

Where a name gives a salt, the structure may show the parent alone.

As to `Cc1cc2c(s1)Nc1ccccc1N=C2N1CCN(C)[C@@H](CCc2ccoc2)C1.Cl.Cl`, the melting point is 198 °C (dec.).

In the case of `Cc1cc2c(s1)Nc1ccccc1N=C2N1CCN(C)[C@@H](CCc2ccccc2)C1.Cl`, the melting point amounted to 225 °C.

Take `Cc1cc2c(s1)Nc1ccccc1N=C2N1CCN(C)[C@@H](CCc2ccc3ccccc3c2)C1` (as salt: hydrochloride): the melting point is 209 °C (dec.).

The compound `CN1CCN(C2=Nc3ccccc3Nc3sc(C(C)(C)C)cc32)C[C@@H]1CCc1ccccc1` (as salt: hydrochloride) yielded a melting point of 230 °C.

Consider `Cc1nc2c(s1)Nc1ccccc1N=C2N1CCN(C)[C@@H](Cc2ccccc2)C1` (as salt: hydrochloride), for which the melting point was 240 °C.

In turn, `COc1ccccc1C[C@H]1CN(C2=Nc3ccccc3Nc3sc(C)nc32)CCN1C` (as salt: hydrochloride) displayed a melting point of 185 °C.

As to `CC(C)c1nc2c(s1)Nc1ccccc1N=C2N1CCN(C)[C@@H](CCc2ccccc2)C1` (as salt: hydrochloride), the melting point worked out at 210 °C.

For `COc1ccc(CC[C@H]2CN(C3=Nc4ccccc4Nc4sc(C(C)C)nc43)CCN2C)cc1` (as salt: hydrochloride), the melting point came to 190 °C.

`Cc1nc2c(s1)Nc1ccccc1N=C2N1CCN(C)[C@@H](CCc2ccc(F)cc2)C1` (as salt: hydrochloride) had a melting point of 230 °C.

Turning to `CC(C)c1nc2c(s1)Nc1ccccc1N=C2N1CCN(C)[C@@H](CCc2cccc(F)c2)C1` (as salt: hydrochloride), the melting point was found to be 180 °C.

The compound `CC(C)c1ccc2c(c1)C(N1CCN(C)[C@@H](CCc3cccc(F)c3)C1)=Nc1ccccc1N2` (as salt: hydrochloride) had a melting point of 227 °C.

Consider `Cc1cc2c(s1)Nc1ccccc1N=C2N1CCN(C)[C@@H](CCc2ccncc2)C1` (as salt: hydrochloride) (hydrate or solvate), for which the melting point is 214 to 217 °C (dec.).

As for `Cc1cc2c(s1)Nc1ccccc1N=C2N1CCN[C@@H](CCc2cccnc2)C1` (as salt: hydrochloride) (hydrate or solvate), the melting point was 226 to 229 °C (dec.).

For the compound `Cc1nc2c(s1)Nc1ccccc1N=C2N1CCN[C@@H](CCc2ccccc2)C1` (as salt: hydrochloride) (hydrate or solvate) [Example 460, (S)-2-Methyl-10-(3-phenethyl-piperazin-1-yl)-4H-3-thia-1,4,9-triaza-benzo[f]azulene dihydrochloride hemihydrate], the melting point stood at 230 °C.

For the compound `Cc1nc2c(s1)Nc1ccccc1N=C2N1CCN(C)[C@@H](CCc2ccccc2)C1` (as salt: hydrochloride) (hydrate or solvate) [Example 461, (S)-2-Methyl-10-(4-methyl-3-phenethyl-piperazin-1-yl)-4H-3-thia-1,4,9-triaza-benzo[f]azulene dihydrochloride hemihydrate], the melting point is 220 °C.

With `CC(C)n1nc2c(n1)C(N1CCN[C@@H](CCc3ccccc3)C1)=Nc1ccccc1N2` (as salt: hydrochloride) (hydrate or solvate) [Example 594, (S)-2-Isopropyl-10-(3-phenethyl-piperazin-1-yl)-2,4-dihydro-1,2,3,4.9-pentaaza-benzo[f]azulene dihydrochloride hemihydrate], the melting point turned out to be 210 °C.

Regarding `Cc1cc2c(s1)Nc1ccccc1N=C2N1CCN[C@@H](CCc2ccccn2)C1` (as salt: hydrochloride) [Example 132], the melting point was 220 to 224 °C (dec.).

Consider `Cc1cc2c(s1)Nc1ccccc1N=C2N1CCN[C@@H](CCc2ccc(F)cc2)C1` (as salt: hydrochloride) [Example 176, 10-((S)-3-(2-(4-Fluorophenyl)-ethyl)-piperazin-1-yl)-2-methyl-4H-3-thia-4,9-diaza-benzo[f]azulene dihydrochloride], for which the melting point was 236 °C (dec.).

Take `Cc1cc2c(s1)Nc1ccccc1N=C2N1CCN[C@@H](CCc2cccc(F)c2)C1` (as salt: hydrochloride) [Example 177, 10-((S)-3-(2-(3-Fluoro-phenyl)-ethyl)-piperazin-1-yl))-2-methyl-4H-3-thia-4,9-diaza-benzo[f]azulene dihydrochloride]: the melting point was 211 °C (dec.).

Turning to `Cc1cc2c(s1)Nc1ccccc1N=C2N1CCN[C@@H](CCc2ccccc2F)C1` (as salt: hydrochloride) [Example 178, 10-((S)-3-(2-(2-Fluoro-phenyl)-ethyl)-piperazin-1-yl)-2-methyl-4H-3-thia-4,9-diaza-benzo[f]azulene dihydrochloride], the melting point is 209 °C (dec.).

In the case of `COc1ccc(CC[C@H]2CN(C3=Nc4ccccc4Nc4sc(C)cc43)CCN2)cc1` (as salt: hydrochloride) [Example 179, 10-((S)-3-(2-(4-methoxy-phenyl)-ethyl)-piperazin-1-yl)-2-methyl-4H-3-thia-4,9-diaza-benzo[f]azulene dihydrochloride], the melting point was 213 °C (dec.).

For `COc1cccc(CC[C@H]2CN(C3=Nc4ccccc4Nc4sc(C)cc43)CCN2)c1` (as salt: hydrochloride) [Example 180, 10-((S)-3-(2-(3-Methoxy-phenyl)-ethyl)-piperazin-1-yl)-2-methyl-4H-3-thia-4,9-diaza-benzo[f]azulene dihydrochloride], the melting point is 201 °C (dec.).

Consider `COc1ccccc1CC[C@H]1CN(C2=Nc3ccccc3Nc3sc(C)cc32)CCN1` (as salt: hydrochloride) [Example 181, 10-((S)-3-(2-(2-Methoxy-phenyl)-ethyl)-piperazin-1-yl)-2-methyl-4H-3-thia-4,9-diaza-benzo[f]azulene dihydrochloride], for which the melting point is 202 °C (dec.).

As for `Cc1cc2c(s1)Nc1ccccc1N=C2N1CCN(C)[C@@H](CCc2ccc(F)cc2)C1` (as salt: hydrochloride) [Example 182, 10-((S)-3-(2-(4-Fluoro-phenyl)-ethyl]-4-methyl-piperazin-1-yl)-2-methyl-4H-3-thia-4,9-diaza-benzo[f]azulene dihydrochloride], the melting point is 253 °C (dec.).

With `Cc1cc2c(s1)Nc1ccccc1N=C2N1CCN(C)[C@@H](CCc2cccc(F)c2)C1` (as salt: hydrochloride) [Example 183, 10-((S)-3-(2-(3-Fluoro-phenyl)-ethyl)-4-methyl-piperazin-1-yl)-2-methyl-4H-3-thia-4,9-diaza-benzo[f]azulene dihydrochloride], the melting point was 225 °C (dec.).

As to `Cc1cc2c(s1)Nc1ccccc1N=C2N1CCN(C)[C@@H](CCc2ccccc2F)C1` (as salt: hydrochloride) [Example 184, 10-((S)-3-(2-(2-Fluoro-phenyl)-ethyl)-4-methyl-piperazin-1-yl)-2-methyl-4H-3-thia-4,9-diaza-benzo[f]azulene dihydrochloride], the melting point is 203 °C (dec.).

In the case of `COc1ccc(CC[C@H]2CN(C3=Nc4ccccc4Nc4sc(C)cc43)CCN2C)cc1` (as salt: hydrochloride) [Example 185, 10-((S)-3-(2-(4-Methoxy-phenyl)-ethyl)-4-methyl-piperazin-1-yl)-2-methyl-4H-3-thia-4,9-diaza-benzo[f]azulene dihydrochloride], the melting point was 239 °C (dec.).
